Data: publication PMC11537999, “Identification of human pregnane X receptor antagonists utilizing a high-throughput screening platform” (Frontiers in Pharmacology, 2024)

Molecular target: T1, hPXR (Homo sapiens, UniProt O75469)
T1 construct: expressed in transfected cells; provided by Dr. Taosheng Chen, St. Jude
T1 sequence (O75469 1-434): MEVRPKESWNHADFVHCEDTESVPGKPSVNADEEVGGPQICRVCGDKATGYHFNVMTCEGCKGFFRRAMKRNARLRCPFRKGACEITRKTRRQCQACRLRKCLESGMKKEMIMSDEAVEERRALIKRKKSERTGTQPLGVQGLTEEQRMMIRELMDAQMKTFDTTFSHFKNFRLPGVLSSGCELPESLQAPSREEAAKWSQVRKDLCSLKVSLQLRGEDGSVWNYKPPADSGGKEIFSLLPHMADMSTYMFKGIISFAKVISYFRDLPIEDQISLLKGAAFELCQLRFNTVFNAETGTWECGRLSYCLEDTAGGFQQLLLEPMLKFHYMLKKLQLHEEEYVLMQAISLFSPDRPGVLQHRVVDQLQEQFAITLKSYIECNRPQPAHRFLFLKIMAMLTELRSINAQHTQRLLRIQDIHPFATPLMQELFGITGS
Experiment: PXR luciferase reporter gene assay (qHTS antagonist mode, rifampicin co-treatment) in HepG2-CYP3A4-hPXR cells
Type: cell-based
Conditions: 2 μM rifampicin, used as treatment concentration in HepaRG cells
Experimental: HepG2 cells stably transfected with a CYP3A4-luc promoter construct and hPXR expression plasmid were provided by Dr. Taosheng Chen (Department of Chemical Biology and Therapeutics, St. Jude Children’s Research Hospital) ([Lin et al., 2008]). Cells were thawed in EMEM (ATCC, Rockville, Maryland), supplemented with 10% Hyclone FBS (GE Healthcare Life Sciences, Logan, Utah) and 100 U/mL of Penicillin and 100 μg/mL of Streptomycin (Invitrogen, Carlsbad, CA) and kept in an incubator at 37°C and 5% CO2. To culture these HepG2-CYP3A4-hPXR cells, 500 μg/mL of Geneticin (GIBCO, Gaithersburg, MD) was added to the thawing media.
(§1) HepG2-CYP3A4-hPXR cells were dispensed into tissue culture treated 1536-well white assay plates (Greiner Bio-One North America, Monroe, NC) using a Multidrop Combi (Thermo Fisher Scientific Inc., Waltham, Massachusetts) at 2,500 cells/4 µL/well. The cell suspension was prepared using new assay media, which contained phenol red-free DMEM (GIBCO), 5% charcoal/dextran-treated FBS (Invitrogen), 1 mM sodium pyruvate (Invitrogen), 2 mM L-Glutamine (Invitrogen), and 100 U/mL of Penicillin and 100 μg/mL of Streptomycin (Invitrogen). All plates were then incubated for 4 h in a 37°C and 5% CO2 incubator. […] In the primary screen, each compound was tested at 7 concentrations ranging from 46 μM to 1.5 nM. 1 μL of rifampicin, a known PXR agonist, was also co-treated in each well, generating a final concentration of 2 μM, using a Flying Reagent Dispenser (Aurora Discovery, Carlsbad, California). All assay plates were placed in an incubator at 37°C with 5% CO2 for 23 h. Following the incubation period, 1 µL of CellTiter-Fluor reagent (Promega, Madison, Wisconsin) was added to each well and all assay plates were placed back into the incubator set at 37°C and 5% CO2 for 1 h. Fluorescence intensity at 540 nm was measured following excitation at 405 nm using a ViewLux plate reader (Perkin Elmer, Shelton, Connecticut), in order to assess cell viability following treatment. Directly after the fluorescent read, 4 μL of ONE-Glo Luciferase reagent (Promega, Madison, Wisconsin) was added to each well using a Flying Reagent Dispenser, and plates were left to sit at room temperature for 30 min. The luminescence of each plate was then measured using the ViewLux plate reader and data were expressed as relative luminescence units. Gross assay performance was assessed by calculating quality metrics, such as coefficient of variance (CV), signal-to-background ratio (S/B), and Z′ factor, a measure of statistical effect size frequently used to judge whether an assay can be scaled up to a large high-throughput screen ([Zhang et al., 1999]).
Data analysis was completed using a previously described protocol ([Huang et al., 2016]). […] Normalized percent activity for all test compounds was determined using the following equation: % activity = [(V compound - V DMSO)/(V DMSO–V pos)] × 100, where V compound denotes the compound well values, V pos denotes the median value of the positive control wells, and V DMSO denotes the median value of the DMSO-only wells. Following normalization, data points were corrected using DMSO-only plates included at the beginning and end of the compound plate stack using an in-house pattern correction algorithm in order to remove background patterns, as well as other small abnormalities within the dataset ([Southall et al., 2009]). […] Efficacy is then [a inf - a 0 ]. a=a0+ainf−a0 c^n/k^n+c^n
Curve class was further converted to curve rank by combining each class with efficacy, such that good quality, efficacious curves are assigned large absolute curve rank values. […] The activity outcome was based on the PXR antagonist readout activity and a cell viability counter screen.

| IC70 values from the original NPACT screen [nM] | SMILES |
| --- | --- |
| 8000 | Cc1cccc2c1CC[C@H](CN1CCC(c3c(Cl)cccc3Cl)CC1)C[C@@H]2O [SB-612111] |
| 3000 | CC(C)C[C@@H](C(=O)N[C@@H](Cc1ccc(OCc2ccccc2)cc1)C(=O)NC(C)(C)C)N(C)Cc1ccc(C(C)(C)C)cc1 [PD 173212] |
| 250 | CN(C)c1cc2c(cc1Sc1nc3c(N)nccc3n1CCNCC(C)(C)C)OCO2 [CUDC-305] |
| 1000 | CC(C)(C)NC(=O)[C@@H](c1cccnc1)N(C(=O)c1ccco1)c1ccc(C(C)(C)C)cc1 [ML 188] |
| 500 | CC(C)NCCCn1c(Sc2cc3c(cc2I)OCO3)nc2c(N)ncnc21 [PU-H71] |
| 3000 | CC1CCN(c2cc(NC(=O)c3ccccc3)ncn2)CC1 [ML 340] |
| 600 | COC(=O)C1=C(C)NC(COC(N)=O)=C(C(=O)OC(C)C)C1c1cccc(Cl)c1Cl (stereo not shown) [lemildipine] |
| 10000 | c1ccc2c(Oc3nc(Nc4ccc(N5CCOCC5)cc4)c4ncn(C5CCCCC5)c4n3)cccc2c1 [purmorpharmine] |
| 10000 | CCN(CC)C(=O)C(c1ccccc1)N1CCN(c2ccc(NC(=O)c3ccccc3-c3cccnc3)cc2F)CC1 (stereo not shown) [JNJ-31020028] |
| 800 | CC(C)(O)C1Cc2c(ccc(C(=O)CCc3ccccc3)c2O)O1 (stereo not shown) [NCGC00385629-01] |
| 15000 | COC(=O)C[C@H]1C(C)(C)[C@H](OC(=O)c2ccccc2)C2CC3=C4CC(=O)O[C@@H](c5ccoc5)[C@]4(C)CCC3[C@@]1(C)C2=O (stereo partly shown) [NCGC00384964-01] |
| 500 | CC[C@@H](C)Nc1cc(C(=O)N[C@H]2C[C@H]3CC[C@@H](C2)N3c2ccc(C(=O)C3CC3)cn2)c(C)cc1C(N)=O [XL-888] |
| 3000 | Cc1ccccc1C#Cc1ccc(CCC(=O)O)cc1 [TUG-424] |
| 7000 | C=C1C(=O)O[C@@H]2[C@H]1CC[C@H](C)[C@]1(CCC(=O)O1)C2(C)O (stereo partly shown) [NCGC00380135-02] |

| SMILES | IC70 values from the original NPACT screen [nM] |
| --- | --- |
| CCCCCOc1cc2c(cc1-c1cc(/C=C/C(=O)O)ccc1O)C(C)(C)CCC2(C)C [UVI 3003] | 800 |

Molecular target: T1, hPXR
Experiment: Pharmacological inhibition (IC50 shift) assay with varying rifampicin in HepG2-CYP3A4-hPXR cells
Type: cell-based
Conditions: co-treated with 2 µM versus 10 µM rifampicin
Experimental: as §1
Each curve was co-treated with 5 μM RIF, 7.5 μM RIF, or 10 μM RIF (a well-known PXR agonist) to determine pharmacological activity. […] Each curve was generated from a combination of all data points together.

| decrease in potency | SMILES |
| --- | --- |
| more than 2 fold | COc1ccc(OC)c(-n2nnc(S(=O)(=O)c3ccc(C(C)(C)C)cc3)c2C)c1 [SPA70, 4-(4-tert-Butylphenylsulfonyl)-1-(2,5-dimethoxyphenyl)-5-methyl-1H-1,2,3-triazole] |

System: CYP3A4 mRNA expression
Experiment: CYP3A4 mRNA expression by qRT-PCR in HepaRG cells treated with compound alone
Type: cell-based, human
Conditions: 24 h, compound at its IC70 concentration, vs DMSO
Experimental: Fully differentiated NoSpin™ HepaRG™ cells (Lonza, Walkersville, Maryland) were seeded into 12-well collagen-coated plates (Corning) at a density of 8 × 10^5 cells/well using Williams’ E medium (ThermoFisher) supplemented with HepaRG™ thawing and plating medium supplement (Lonza), 25 U/mL penicillin, and 25 μg/mL streptomycin (Invitrogen). The cells were then placed into a 37°C and 5% CO2 incubator for 3 days including a media change before treatment. Cells were then treated with the vehicle control (final concentration of 0.1% DMSO), the positive controls, or test compounds for 24 h before harvesting.
Total RNA was extracted from the cell lysate using an RNeasy Mini kit (Qiagen) according to the manufacturer’s instructions. RNA was reverse transcribed to cDNA using a High-Capacity RNA-to-cDNA kit (Applied Biosystems). CYP3A4 and CYP2B6 mRNA expression were both measured and normalized to the glyceraldehyde-3-phosphate dehydrogenase (GAPDH) housekeeping gene. Real-time PCR was completed using a QuantStudio Real-Time PCR system (Applied Biosystems) with TaqMan probes (CYP3A4 Assay ID: Hs00604506_m1, CYP2B6 Assay ID: Hs04183483_g1, GAPDH Assay ID: Hs99999905_m1, ThermoFisher Scientific, Waltham, MA). Following amplification, induction values were calculated using the equation: Fold = 2^−ΔΔCt, where ΔCt represents the difference in number of cycles required to reach the Ct threshold between CYP3A4 or CYP2B6 and GAPDH, and ΔΔCt represents the relative change in these differences between the control (DMSO) and treatment groups. Experimental data are expressed as a mean of triplicate values ±SD. Statistical analysis was performed using one-way analysis of variance with post hoc Dunnett’s analysis. The statistical significance values were set at p < 0.05 (*), p < 0.01 (**), and p < 0.001 (***).
To overcome the previous screening limitations, we used this more physiologically relevant cell line, HepaRG cells, to run follow-up studies with the PXR antagonists identified from the primary screen which used immortalized cell lines without a metabolic component. Using HepaRG cells, the 20 potential PXR antagonists were treated for 24 h and harvested for mRNA (Supplementary Figure S1).
FIGURE 3 HepaRG cells were treated with the top 20 most promising PXR antagonists identified from the high-throughput screen. […] The concentrations for the test compounds were the IC70 values from the original NPACT screen. Real-time PCR was used to analyze the mRNA expression of CYP3A4. Each bar represents the mean ± SD in triplicate. *, p < 0.05; **, p < 0.01.

| SMILES | inhibition of CYP3A4 mRNA expression (in words) |
| --- | --- |
| CC(C)NCCCn1c(Sc2cc3c(cc2I)OCO3)nc2c(N)ncnc21 [PU-H71] | significantly inhibited CYP3A4 mRNA expression |
| CCN(CC)C(=O)C(c1ccccc1)N1CCN(c2ccc(NC(=O)c3ccccc3-c3cccnc3)cc2F)CC1 (stereo not shown) [JNJ-31020028] | significantly inhibited CYP3A4 mRNA expression |
| CCCCCOc1cc2c(cc1-c1cc(/C=C/C(=O)O)ccc1O)C(C)(C)CCC2(C)C [UVI 3003] | generated CYP3A4 inhibition but not to a significant degree |
